Test results: patent publication US20110251160A1 (priority 2008, published 2011)
Like-named read-outs stand apart in the source and are kept apart here. Marks after values point to notes of the source that are not given here.

What was measured:
[1] = system: patients with chronic atrial fibrillation; assay: PETRO study, phase 2 12-week dose finding study; type: in vivo, human
Source text: Primary endpoints were bleeding events and changes in D-dimer. […] Minor bleeding was dose related.

[2] = system: cytochrome P-450 drug metabolizing enzymes; assay: Cytochrome P-450 interaction; type: in vitro ADME
[3] = Physical properties of dabigatran etexilate; type: physicochemical
[4] = system: patients with atrial fibrillation
Description: PETRO-Ex began while the PETRO study was ongoing and investigators were initially kept blinded to patient treatment group until PETRO was completed. Unblinding investigators to patient treatment was possible thereafter.
Data were summarized descriptively; no hypothesis was to be tested. Events were analyzed on the basis of the treatment at onset. Incidences were reported as number of patients with events as well as normalized to 100 patient years on the respective treatment.
Patients who completed PETRO on 50 mg b.i.d. were switched to 150 mg q.d. upon entry in the PETRO-Ex study (N=93 patients). […] Patients who were down titrated to 50 mg q.d. based on a glomerular filtration rate ≦50 mL/min during PETRO were excluded from the long-term trial; patients down-titrated in other dose levels remained on the q.d. treatment at that dose.
The former is represented by the number of thromboembolic events per 100 years, the latter by the number of bleeding events per 100 years.

[5] = Clinical pharmacokinetics and pharmacodynamics of dabigatran etexilate; conditions: in vivo
[6] = 300 mg b.i.d., listed as dabigatran etexilate
[7] = PETRO-Ex, Dabigatran etexilate All doses
[8] = PETRO-Ex, including bleeding and thrombotic events

SMILES: CCCCCCOC(=O)NC(=N)c1ccc(NCc2nc3cc(C(=O)N(CCC(=O)OCC)c4ccccn4)ccc3n2C)cc1 [Dabigatran etexilate, 1-methyl-2-[N-[4-(N-n-hexyloxycarbonylamidino)phenyl]aminomethyl]benzimidazol-5-ylcarboxylic acid-N-(2-pyridyl)-N-(2-ethoxycarbonylethyl)amides]
- Systemic thromboembolic events, number ([1]; 50 mg b.i.d. group): 2
- Major bleeding events ([1]; 300 mg b.i.d. plus ASA groups): 6%
- Major bleeding events, number ([1]; 300 mg b.i.d. plus ASA groups): Four
- Minor bleeding ([1]; 50, 150 and 300 mg b.i.d.): dose related
- Elevated transaminases >3×upper limit of normal (ULN) ([1]; dabigatran etexilate-treated patients, all doses): 0.9%
- Elevated transaminases >3×upper limit of normal (ULN), number of patients ([1]; of 432 dabigatran etexilate-treated patients): 4
- Metabolism by, induction or inhibition of cytochrome P-450 [2]: not metabolized by and does not induce or inhibit cytochrome P-450 drug metabolizing enzymes
- Hygroscopicity [3]: hygroscopic
- Solubility in water [3]: sparingly soluble in water
- Adverse Events leading to premature discontinuation (rate) ([4]; 50 mg b.i.d.): 21.3 per 100 patient years
- Other MACE (rate) ([4]; 50 mg b.i.d.): 8.5 per 100 patient years
- Stroke and Systemic Thromboembolism (rate) ([4]; 50 mg b.i.d.): 12.8 per 100 patient years
- Stroke and Systemic Thromboembolism (rate) ([4]; 50 mg b.i.d., listed as dabigatran etexilate): more than 12 per 100 patient years
- ALT or AST >2xULN (rate) ([4]; 150 mg b.i.d.): 3.1 per 100 patient years
- ALT or AST >3xULN (rate) ([4]; 150 mg b.i.d.): 1.9 per 100 patient years
- ALT or AST >3xULN and Bili >2xULN within 30 days (rate) ([4]; 150 mg b.i.d.): 0.4 per 100 patient years
- ALT or AST >5xULN (rate) ([4]; 150 mg b.i.d.): 1.0 per 100 patient years
- Adverse Events leading to premature discontinuation (rate) ([4]; 150 mg b.i.d.): 9.8 per 100 patient years
- Fatal major bleeds, number ([4]; 150 mg b.i.d.): 4
- MI (rate) ([4]; 150 mg b.i.d.): 0.9 per 100 patient years
- Major Bleeds (rate) ([4]; 150 mg b.i.d.): 4.2 per 100 patient years
- Major Bleeds, of these with aspirin (rate) ([4]; 150 mg b.i.d.): 8.7 per 100 patient years
- Major Bleeds, of these without aspirin (rate) ([4]; 150 mg b.i.d.): 3.2 per 100 patient years
- Major bleeding events ([4]; 150 mg b.i.d.): 4.2 % per year
- Other MACE (rate) ([4]; 150 mg b.i.d.): 1.0 per 100 patient years
- Stroke and Systemic Thromboembolism (rate) ([4]; 150 mg b.i.d.): 1.0 per 100 patient years
- TIA (rate) ([4]; 150 mg b.i.d.): 0.1 per 100 patient years
- Thromboembolic events and stroke rate ([4]; 150 mg b.i.d.): 1 % per year
- ALT or AST >2xULN (rate) ([4]; 150 mg q.d.): 3.4 per 100 patient years
- Adverse Events leading to premature discontinuation (rate) ([4]; 150 mg q.d.): 13.7 per 100 patient years
- Major Bleeds (rate) ([4]; 150 mg q.d.): 5.1 per 100 patient years
- Major Bleeds, of these without aspirin (rate) ([4]; 150 mg q.d.): 6.5 per 100 patient years
- Stroke and Systemic Thromboembolism (rate) ([4]; 150 mg q.d.): 5.1 per 100 patient years
- Stroke and Systemic Thromboembolism (rate) ([4]; 150 mg q.d., listed as dabigatran etexilate): about 5 per 100 patient years
- ALT or AST >2xULN (rate) ([4]; 300 mg b.i.d.): 4.9 per 100 patient years
- ALT or AST >3xULN (rate) ([4]; 300 mg b.i.d.): 2.4 per 100 patient years
- ALT or AST >5xULN (rate) ([4]; 300 mg b.i.d.): 1.2 per 100 patient years
- Adverse Events leading to premature discontinuation (rate) ([4]; 300 mg b.i.d.): 25.6 per 100 patient years
- Major Bleeds (rate) ([4]; 300 mg b.i.d.): 12.2 per 100 patient years
- Major Bleeds, of these with aspirin (rate) ([4]; 300 mg b.i.d.): 32.7 per 100 patient years
- Major Bleeds, of these without aspirin (rate) ([4]; 300 mg b.i.d.): 6.3 per 100 patient years
- Major bleeding events ([4]; 300 mg b.i.d.): 12.2 % per year
- Other MACE (rate) ([4]; 300 mg b.i.d.): 1.2 per 100 patient years
- Stroke and Systemic Thromboembolism (rate) ([4]; 300 mg b.i.d.): 1.2 per 100 patient years
- Thromboembolic events and stroke rate ([4]; 300 mg b.i.d.): 1.2 % per year
- Major Bleeds (rate) [4, 6]: more than 12 per 100 patient years
- Stroke and Systemic Thromboembolism (rate) [4, 6]: about 1 per 100 patient years
- ALT or AST >2xULN (rate) ([4]; 300 mg q.d.): 1.5 per 100 patient years
- ALT or AST >3xULN (rate) ([4]; 300 mg q.d.): 1.5 per 100 patient years
- ALT or AST >3xULN and Bili >2xULN within 30 days (rate) ([4]; 300 mg q.d.): 0.5 per 100 patient years
- ALT or AST >5xULN (rate) ([4]; 300 mg q.d.): 1.5 per 100 patient years
- Adverse Events leading to premature discontinuation (rate) ([4]; 300 mg q.d.): 9.6 per 100 patient years
- Fatal major bleeds, number ([4]; 300 mg q.d.): 1
- MI (rate) ([4]; 300 mg q.d.): 0.5 per 100 patient years
- Major Bleeds (rate) ([4]; 300 mg q.d.): 2.5 per 100 patient years
- Major Bleeds, of these with aspirin (rate) ([4]; 300 mg q.d.): 3.6 per 100 patient years
- Major Bleeds, of these without aspirin (rate) ([4]; 300 mg q.d.): 2.1 per 100 patient years
- Major bleeding events ([4]; 300 mg q.d.): 2.5 % per year
- Other MACE (rate) ([4]; 300 mg q.d.): 0.5 per 100 patient years
- Stroke and Systemic Thromboembolism (rate) ([4]; 300 mg q.d.): 2.5 per 100 patient years
- Stroke and Systemic Thromboembolism (rate) ([4]; 300 mg q.d., listed as dabigatran etexilate): more than 2 per 100 patient years
- Tolerability ([4]; 300 mg twice daily): not tolerable
- Serious adverse events: cardiac disorders ([4]; PETRO-Ex): 22%
- Serious adverse events: cardiac disorders, pts ([4]; PETRO-Ex): 80
- Serious adverse events: gastrointestinal disorders ([4]; PETRO-Ex): 7.8%
- Serious adverse events: gastrointestinal disorders, pts ([4]; PETRO-Ex): 28
- Serious adverse events: infections ([4]; PETRO-Ex): 9.4%
- Serious adverse events: infections, pts ([4]; PETRO-Ex): 34
- Serious adverse events: nervous system disorders ([4]; PETRO-Ex): 9.1%
- Serious adverse events: nervous system disorders, pts ([4]; PETRO-Ex): 33
- Stroke and systemic embolism (per 100 patient years) ([4]; PETRO-Ex, Dabigatran etexilate 150 mg b.i.d.): 1.0%
- Major bleeding events (per 100 patient years) ([4]; PETRO-Ex, Dabigatran etexilate 150 mg b.i.d., without concomitant aspirin): 3.2%*
- LFT abnormalities >3 xULN (per 100 patient years) [4, 7]: 1.7%
- Myocardial Infarction [4, 7]: 0.7%
- Serious adverse events [4, 8]: 51%
- Serious adverse events, patients [4, 8]: 184
- ALT or AST >2xULN (rate) ([4]; Total): 2.9 per 100 patient years
- ALT or AST >3xULN (rate) ([4]; Total): 1.7 per 100 patient years
- ALT or AST >3xULN and Bili >2xULN within 30 days (rate) ([4]; Total): 0.4 per 100 patient years
- ALT or AST >5xULN (rate) ([4]; Total): 1.1 per 100 patient years
- Adverse Events leading to premature discontinuation (rate) ([4]; Total): 11.5 per 100 patient years
- MI (rate) ([4]; Total): 0.7 per 100 patient years
- Major Bleeds (rate) ([4]; Total): 4.2 per 100 patient years
- Major Bleeds, of these with aspirin (rate) ([4]; Total): 8.5 per 100 patient years
- Major Bleeds, of these without aspirin (rate) ([4]; Total): 3.2 per 100 patient years
- Other MACE (rate) ([4]; Total): 1.1 per 100 patient years
- Stroke and Systemic Thromboembolism (rate) ([4]; Total): 1.9 per 100 patient years
- TIA (rate) ([4]; Total): 0.1 per 100 patient years
- Concomitant bilirubin elevation >2×ULN within 30 days of transaminase elevations >3×ULN ([4]; all doses): 0.4 % per year
- Elevated liver transaminases, AST or ALT >3×ULN ([4]; all doses): 1.7 % per year
- Fatal intracranial bleeds, number ([4]; all doses): Three
- Fatal major bleeds, number ([4]; all doses): Five
- Transaminases (AST or ALT) >5×ULN ([4]; all doses): 1.1 % per year
- Major bleed rate ([4]; doses ≦150 mg/day (150 mg q.d. combined with 50 mg b.i.d.)): 3.7 % per year
- Bleeding event rate ([4]; on concomitant aspirin): 8.5 % per year
- Stroke or systemic thromboembolic event rates ([4]; the two highest doses): approximately 1 % per year
- Bleeding event rate ([4]; without concomitant aspirin): 3.2 % per year
- Annualized thromboembolic event rate ([4]; ≦150 mg/day): over 5.0 per 100 patient years
- Food interactions [5]: no food interactions
